“Also recorded” adds a separate entry of the source.
System: animal model of form-deprivation myopia (FDM)
Assay: form-deprivation myopia (FDM) model experiment on colorful guinea pigs
Conditions: for change value of ocular axial length: 0.05% eye drops once a day, after four weeks, compared with model control group; for body weight: during the experiment, among the groups
Method: An animal model of form-deprivation myopia (FDM) was prepared by using the monocular deprived (MD) method, i.e., covering one eye with an opaque eye patch to cause form-deprivation.
Models were established for each group of animals, and drugs were started on the first day of modeling. The model control group (FDM), positive control group (FDM+atropine), and bencycloquidium bromide group (FDM+the eye drops of bencycloquidium bromide) were given blank solvent, 0.05% atropine, and 0.05% eye drops of bencycloquidium bromide by instillation into the conjunctival sac, once a day, 20 L/eye, for a total of four weeks. Among them, the component of the blank solvent is water for injection; the components of 0.05% atropine using water for injection as solvent comprises 0.05% of atropine, 1.0% of polyvinyl alcohol, and 0.02% of benzalkonium chloride; and the osmotic pressure regulator is sodium chloride, and the osmolality of the eye drops is adjusted to 300 to 320 mOsmol/kg, and the pH regulator is phosphate buffer (NaH2PO4—Na2HPO4), which is used to adjust the pH value of the eye drops to 6.8.
The detection indicators were as follows: • (1) Animals are generally observed clinically once a day. • (2) Animal body weight is measured upon receipt, on the 7th and 14th days of quarantine, and twice a week after modeling. • (3) The anterior chamber depth, lens thickness, vitreous cavity depth and ocular axial length were checked before modeling and once a week after administration. • (4) The diopter was checked before modeling and once a week after administration.

SMILES	change value of ocular axial length (guinea pig FDM model)	body weight (guinea pig FDM model)	trend of diopter decline (guinea pig FDM model, 0.05% eye drops per day during four-week modeling period)	preventive effect on myopia (guinea pig FDM myopia model)
CN1[C@@H]2CC[C@H]1C[C@@H](OC(=O)C(CO)c1ccccc1)C2 (stereo partly drawn) [atropine]	significantly reduced	no significant difference in body weight	–	–
C[N+]12CCC(CC1)C(OCC(O)(c1ccccc1)C1CCCC1)C2 (stereo not drawn) [bencycloquidium bromide]	significantly reduced; also recorded: significantly inhibit	no significant difference in body weight	significantly inhibit the trend of diopter decline	significant preventive effect

— US20260000654A1, “USE OF BENCYCLOQUIDIUM BROMIDE, ISOMER THEREOF AND DERIVATIVE THEREOF IN PREPARATION OF OPHTHALMIC FORMULATION” (Beijing Yingu Medicine Sci Techno Co., Ltd., priority 2023, published 2026)
